The values that follow are results of earlier work, collected in US20070178051A1, “STERILIZED NANOPARTICULATE GLUCOCORTICOSTEROID FORMULATIONS” (Elan Pharma International, Ltd., priority 2006, published 2007).

With `CCCC1O[C@@H]2C[C@H]3C4CCC5=CC(=O)C=CC5(C)[C@H]4[C@@H](O)CC3(C)C2(C(=O)CO)O1` (mixture of isomers) [Budesonide, (RS)-11,16,17,21-Tetrahydroxy-pregna-1,4-diene-3,20-dione cyclic 16,17-acetal with butraldehyde], the solubility in water entry is recorded as “practically insoluble”. For the same compound, the solubility in chloroform result (chloroform) is recorded as “freely soluble”. Moreover, the solubility in ethanol result (ethanol) is “sparingly soluble”. The solubility in heptane result (heptane) was “practically insoluble”.

`CCC(=O)O[C@]1(C(=O)SCF)[C@H](C)C[C@H]2[C@@H]3C[C@H](F)C4=CC(=O)C=C[C@]4(C)[C@@]3(F)[C@@H](O)C[C@@]21C` [Fluticasone propionate, S-(fluoromethyl) 6a,9-difluoro-11b, 17-dihydroxy-16a-methyl-3-oxoandrosta-1,4-diene-17b-carbothioate, 17-propionate]: the solubility in water entry is “practically insoluble”.
